According to patent publication US20230233640A1, “ANTIVIRAL PREPARATION FROM CHESTNUT SHELLS OF CASTANEA SATIVA MILL” (Micronature S.R.L., priority 2019, published 2023):
Like-named read-outs stand apart in the source and are kept apart here.

How the values were obtained:
[1] = Cytotoxicity in MT-4 cells (MTT); assay type: cell-based; settings: human
From the text: (§1) Cell lines were purchased from American Type Culture Collection (ATCC). The absence of mycoplasma contamination was checked periodically by the Hoechst staining method. Cell lines supporting the multiplication of RNA viruses were the following: CD4+ human T-cells containing an integrated HTLV-1 genome (MT-4); Madin Darby Bovine Kidney (MDBK) [ATCC CCL 22 (NBL-1) Bos Taurus]; Baby Hamster Kidney (BHK-21) [ATCC CCL 10 (C-13) Mesocricetus auratus], Vero cells (CCL-81; American Type Culture Collection, Manassas, VA, USA)
(§2) Cytotoxicity assays were run in parallel with antiviral assays.
Exponentially growing MT-4 cells were seeded at an initial density of 1 × 10^5 cells/ml in 96-well plates in RPMI-1640 medium, supplemented with 10% fetal bovine serum (FBS), 100 units/mL penicillin G and 100 µg/mL streptomycin. Cell cultures were then incubated at 37° C. in a humidified, 5% CO2 atmosphere, in the absence or presence of serial dilutions of test compounds. Cell viability was determined after 96 hrs at 37° C. by the 3-(4,5-dimethylthiazol-2-yl)-2,5-diphenyl-tetrazolium bromide (MTT) method (Pauwels et al. 1988).

[2] = Cytotoxicity in VERO cells; assay type: cell-based; settings: reference marked * (µM)
From the text: as §2

BVDV = assay type: cell-based, bovine viral diarrhoea virus (BVDV) strain NADL; settings: reference marked * (µM); 50% protection of MDBK cells; read-out: In vitro efficacy EC50 BVDV
MDBK cells = assay: Cytotoxicity in MDBK cells (MTT); assay type: cell-based, Bos Taurus; settings: reference marked * (µM)
From the text: as §1, §2
MDBK cells were seeded in 96-well plates at an initial density of 6 × 10^5 and 1 × 10^6 cells/mL, respectively, in Minimum Essential Medium with Earle’s salts (MEM-E), L-glutamine, 1 mM sodium pyruvate and 25 mg/L kanamycin, supplemented with 10% horse serum (MDBK). Cell cultures were then incubated at 37° C. in a humidified, 5% CO2 atmosphere in the absence or presence of serial dilutions of test compounds. Cell viability was determined after 72 hrs at 37° C. by the MTT method. […] Vero cells (1 × 10^6) were plated in 6-well multiwells and incubated the next day with the substance at the same concentrations used in the antiviral assays. […]

enfuvirtide
CC50 at 96 h ([1]; mock-infected MT-4 cells, viability reduced by 50%, MTT method, read-out: Cytotoxicity in MT-4 cells CC50): > 100 mg/L

O=C1Nc2ccc(Cl)cc2[C@@](C#CC2CC2)(C(F)(F)F)O1 [EFV, Efavirenz]
CC50 at 96 h [1]: 40 µM

Enfuvirtide
In vitro efficacy EC50 HIV-1 (HIV-1): 0.017 mg/L

CC[C@H](C)[C@H](NC(=O)[C@H](C)NC(=O)[C@H](CCC(=O)O)NC(=O)[C@H](CCC(=O)O)NC(=O)[C@H](CC(C)C)NC(=O)[C@H](CCCCN)NC(=O)[C@H](CCCCN)NC(=O)[C@H](CCSC)NC(=O)[C@H](CCC(=O)O)NC(=O)[C@H](Cc1ccc(O)cc1)NC(=O)[C@H](CCC(=O)O)NC(=O)[C@H](CC(C)C)NC(=O)[C@H](CC(=O)O)NC(=O)[C@H](CC(C)C)NC(=O)[C@H](Cc1ccccc1)NC(=O)[C@@H](NC(=O)[C@@H](NC(=O)[C@H](CC(N)=O)NC(=O)[C@@H](NC(=O)[C@H](CCC(N)=O)NC(=O)[C@H](CC(=O)O)NC(=O)[C@H](CC(C)C)NC(=O)[C@@H](N)CO)[C@@H](C)CC)C(C)C)[C@@H](C)O)C(=O)N[C@@H](CCCCN)C(=O)N[C@@H](CCCCN)C(=O)N[C@@H](CC(C)C)C(=O)N[C@@H](CCC(=O)O)C(=O)N[C@@H](CCC(=O)O)C(=O)N[C@@H](CO)C(=O)N[C@@H](Cc1ccc(O)cc1)C(=O)N[C@H](C(=O)N[C@@H](CC(=O)O)C(=O)N[C@@H](CC(C)C)C(=O)N[C@@H](CCCCN)C(=O)N[C@@H](CCC(=O)O)C(=O)N[C@@H](CC(C)C)C(=O)O)[C@@H](C)CC [EK1]
EC50 (SARS-CoV-2): 5.4 µM | CC50 [2]: > 100 µM

C[C@@]1(O)[C@H](O)[C@@H](CO)O[C@H]1n1cnc2c(=O)[nH]c(N)nc21 [NM 108]
EC50 (BVDV): 1.6 µM | CC50 (MDBK cells): > 100 µM
